For assay [1], the target named is Ephrin type-A receptor 2 (Homo sapiens) (UniProt P29317). The assay can be described thus: Inhibition of EPHA2 (unknown origin) at 0.5 uM relative to control.
For assay [2], the target named is Serine/threonine-protein kinase TAO2 (Homo sapiens) (UniProt Q9UL54). Briefly: Inhibition of TAOK2 (unknown origin) at 0.5 uM relative to control.

As usually defined, the inhibition is the share of the control response that was lost under treatment. A lower inhibition goes with a weak effect.

Ephrin type-A receptor 2 (Homo sapiens), sequence (P29317 whole entry): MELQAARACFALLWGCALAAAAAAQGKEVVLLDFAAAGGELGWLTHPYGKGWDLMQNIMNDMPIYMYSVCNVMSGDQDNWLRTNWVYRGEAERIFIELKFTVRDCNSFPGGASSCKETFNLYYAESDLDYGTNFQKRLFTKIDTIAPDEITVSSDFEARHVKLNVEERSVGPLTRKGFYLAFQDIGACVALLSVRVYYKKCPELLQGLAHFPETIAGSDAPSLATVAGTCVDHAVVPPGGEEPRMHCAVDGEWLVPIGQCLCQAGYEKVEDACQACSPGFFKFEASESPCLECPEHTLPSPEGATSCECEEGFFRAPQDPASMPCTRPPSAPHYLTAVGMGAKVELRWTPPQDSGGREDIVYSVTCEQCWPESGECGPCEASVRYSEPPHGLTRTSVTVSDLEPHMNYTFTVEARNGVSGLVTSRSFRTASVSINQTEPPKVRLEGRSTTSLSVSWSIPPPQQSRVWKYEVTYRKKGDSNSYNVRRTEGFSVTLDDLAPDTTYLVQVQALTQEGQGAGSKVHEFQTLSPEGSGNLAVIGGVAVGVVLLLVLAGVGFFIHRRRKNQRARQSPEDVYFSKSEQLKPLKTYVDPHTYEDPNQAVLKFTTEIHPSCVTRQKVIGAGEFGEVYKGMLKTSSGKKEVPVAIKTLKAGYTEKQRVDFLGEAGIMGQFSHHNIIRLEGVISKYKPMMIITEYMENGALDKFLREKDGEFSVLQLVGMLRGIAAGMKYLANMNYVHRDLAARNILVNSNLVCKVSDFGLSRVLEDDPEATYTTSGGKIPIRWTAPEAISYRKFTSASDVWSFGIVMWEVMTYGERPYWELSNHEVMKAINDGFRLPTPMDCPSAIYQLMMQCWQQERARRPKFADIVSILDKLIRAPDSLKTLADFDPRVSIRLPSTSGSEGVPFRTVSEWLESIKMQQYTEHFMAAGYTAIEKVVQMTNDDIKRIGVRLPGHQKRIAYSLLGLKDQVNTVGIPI
Serine/threonine-protein kinase TAO2 (Homo sapiens), sequence (Q9UL54 whole entry): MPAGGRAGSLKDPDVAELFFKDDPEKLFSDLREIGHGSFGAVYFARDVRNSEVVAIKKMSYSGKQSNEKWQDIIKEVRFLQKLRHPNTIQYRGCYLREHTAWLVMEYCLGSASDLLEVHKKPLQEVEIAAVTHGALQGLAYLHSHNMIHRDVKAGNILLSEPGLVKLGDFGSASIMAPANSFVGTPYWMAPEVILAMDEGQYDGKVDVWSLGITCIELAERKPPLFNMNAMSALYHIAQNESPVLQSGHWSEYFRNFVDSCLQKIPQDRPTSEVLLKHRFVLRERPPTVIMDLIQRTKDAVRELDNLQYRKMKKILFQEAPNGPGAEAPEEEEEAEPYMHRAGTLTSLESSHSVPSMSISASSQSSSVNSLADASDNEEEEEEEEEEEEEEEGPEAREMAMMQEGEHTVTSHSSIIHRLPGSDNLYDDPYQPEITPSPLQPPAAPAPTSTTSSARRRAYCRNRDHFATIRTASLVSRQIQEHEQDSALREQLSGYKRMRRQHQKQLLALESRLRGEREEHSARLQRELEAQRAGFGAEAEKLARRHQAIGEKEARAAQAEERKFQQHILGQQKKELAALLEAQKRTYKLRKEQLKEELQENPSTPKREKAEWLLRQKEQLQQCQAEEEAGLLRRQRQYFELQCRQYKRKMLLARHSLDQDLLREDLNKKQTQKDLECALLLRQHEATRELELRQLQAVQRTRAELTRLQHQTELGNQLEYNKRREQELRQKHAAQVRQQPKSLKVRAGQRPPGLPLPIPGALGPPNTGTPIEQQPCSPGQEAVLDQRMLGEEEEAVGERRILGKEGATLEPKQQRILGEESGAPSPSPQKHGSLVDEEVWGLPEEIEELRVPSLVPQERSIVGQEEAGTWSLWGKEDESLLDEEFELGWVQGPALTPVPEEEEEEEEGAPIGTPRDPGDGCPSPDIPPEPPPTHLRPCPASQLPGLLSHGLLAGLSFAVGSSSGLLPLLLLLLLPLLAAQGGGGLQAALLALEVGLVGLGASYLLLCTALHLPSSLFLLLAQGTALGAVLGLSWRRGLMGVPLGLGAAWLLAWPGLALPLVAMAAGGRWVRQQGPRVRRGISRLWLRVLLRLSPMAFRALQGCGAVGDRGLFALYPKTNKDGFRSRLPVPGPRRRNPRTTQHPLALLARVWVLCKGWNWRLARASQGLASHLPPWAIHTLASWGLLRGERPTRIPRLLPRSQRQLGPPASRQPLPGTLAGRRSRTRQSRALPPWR

For the compound `CSc1nc(C(=O)Nc2ccc(Oc3cc4cnn(C)c4cc3Br)cc2)c(-c2ccc(F)cc2)o1`, the inhibition in assay [1] was found to be 25%.
For `CNC(=O)c1cc(Oc2ccc(NC(=O)c3nc(NC)sc3-c3ccc(F)cc3)cc2)ccn1`, the inhibition in assay [2] was found to be 44%.

These data come from ChEMBL document CHEMBL4806968, “Hipk inhibitors and methods of use thereof” (2020).
